Data as given in US12527872B2, “PEGylated ICD inducer-IDO inhibitor nanoconjugate, and preparation method and use thereof” (SHANDONG UNIVERSITY, priority 2019, dated 2026).

Columns and labels:
4T1 cells [1] = assay: In vitro anti-tumor viability test (CCK-8); format: cell-based; details: different concentrations, 48 h, CCK-8, absorbance at 450 nm; FIG. 10
Experimental: 4T1 cells were incubated in a 96-well plate (8000 cells/well) with a volume of 100 μL per well. After the incubation, the 96-well plate was placed in an incubator to culture at 37° C. under 5% CO2 overnight. 100 μL of free OXA and diMT-OXA(IV)-PEG 2000 nanoconjugate (in different concentrations) were added. After culture in the incubator at 37° C. under 5% CO2 for 48 h, 10 μL of CCK-8 solution was added into each well and then cultured in the incubator at 37° C. under 5% CO2 for 2 h. The absorbance was measured at 450 nm by an ELISA reader, and the cell viability was calculated.

4T1 cells [2] = assay: In vivo inhibition of breast tumor growth (4T1 breast cancer model); details: BALB/c mice injected with 4T1 cells, treated every three days; compared with saline control; FIG. 8
Experimental: To evaluate the efficacy of diMT-OXA(IV)-PEG 2000 nanoconjugate in inhibiting tumor growth in vivo, a model of animal with breast cancer was established. 4T1 cells were injected intravenously in BALB/c mice. 4T1 cells spontaneously generate tumors in BALB/c mice, and the characteristics of these tumors are very similar to breast cancer in humans. The BALB/c mice injected with 4T1 cells were treated every three days with free OXA, free 1-MT, free 1-MT plus OXA, and diMT-OXA(IV)-PEG 2000 nanoconjugate, and were treated with saline as control. After the course of treatment, tumor masses were collected from the experimental mice to measure tumor volume to assess general anti-tumor effects (see […]). It can be learned from FIG. 8 that the tumor volume is reduced in mice treated with free OXA, free 1-MT, and free 1-MT plus OXA, and the tumor volume is reduced in mice treated with diMT-OXA(IV)-PEG 2000 nanoconjugate to more than about 50% of that in mice treated with saline as control.

| SMILES | inhibitory effect on the proliferation of 4T1 cells (cell viability) (4T1 cells [1]) | tumor volume (4T1 cells [2]) |
| --- | --- | --- |
| O=C1[O][Pt]2([NH][C@@H]3CCCC[C@H]3[NH]2)[O]C1=O [free OXA, oxaliplatin] | good inhibitory effect | reduced |
| Cn1cc(C[C@@H](N)C(=O)O)c2ccccc21 [free 1-MT, 1-methyl-D-tryptophan] |  | reduced |
